How the values were obtained:
[1] = biological target: T1, Lr-XylC (Limosilactobacillus reuteri, UniProt A0A0S4NRU4); experiment: inhibition of pNP-Xyl hydrolysis, absorbance […] nm; type: biochemical; settings: 2 mM pNP-Xyl, 50 mM sodium phosphate pH 5.7, 45 °C, 5 min; 200 mM xylose
T1 construct: recombinant E. coli Rosetta (DE3), pET28a, His-tag, any signal peptide excluded; ~75 kDa; catalytic Asp382 and Glu415
T1 sequence (A0A0S4NRU4 1-679): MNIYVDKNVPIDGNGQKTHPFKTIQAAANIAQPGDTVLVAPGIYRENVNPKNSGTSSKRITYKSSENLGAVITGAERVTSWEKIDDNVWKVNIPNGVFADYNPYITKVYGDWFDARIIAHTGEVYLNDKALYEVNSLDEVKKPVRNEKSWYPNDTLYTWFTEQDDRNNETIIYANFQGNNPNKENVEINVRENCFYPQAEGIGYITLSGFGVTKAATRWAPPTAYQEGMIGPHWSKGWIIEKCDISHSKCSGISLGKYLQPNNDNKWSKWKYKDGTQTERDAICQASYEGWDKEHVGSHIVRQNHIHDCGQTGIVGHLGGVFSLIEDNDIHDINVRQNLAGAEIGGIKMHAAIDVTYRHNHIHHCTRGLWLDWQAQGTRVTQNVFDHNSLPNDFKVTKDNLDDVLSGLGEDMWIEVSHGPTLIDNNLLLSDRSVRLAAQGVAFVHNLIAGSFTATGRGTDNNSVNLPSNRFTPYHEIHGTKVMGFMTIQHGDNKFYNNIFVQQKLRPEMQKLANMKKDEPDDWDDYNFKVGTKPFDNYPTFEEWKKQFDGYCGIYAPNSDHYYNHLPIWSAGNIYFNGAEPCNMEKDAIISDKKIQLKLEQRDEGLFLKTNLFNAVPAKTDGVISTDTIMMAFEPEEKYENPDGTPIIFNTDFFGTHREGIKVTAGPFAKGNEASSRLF

[2] = biological target: T2, Bp-XylX-2 (Blautia producta, UniProt A0ABX6JGM7); experiment: inhibition of pNP-Xyl hydrolysis, absorbance […] nm; type: biochemical; settings: 2 mM pNP-Xyl, 50 mM sodium phosphate pH 5.7, 45 °C, 5 min; 200 mM xylose
T2 construct: gene GXM18_22300; recombinant E. coli Rosetta (DE3), pET28a, His-tag, any signal peptide excluded; ~75 kDa; catalytic Asp386 and Glu409; strain proteome UP000464715
T2 sequence (A0ABX6JGM7 entry or part of it): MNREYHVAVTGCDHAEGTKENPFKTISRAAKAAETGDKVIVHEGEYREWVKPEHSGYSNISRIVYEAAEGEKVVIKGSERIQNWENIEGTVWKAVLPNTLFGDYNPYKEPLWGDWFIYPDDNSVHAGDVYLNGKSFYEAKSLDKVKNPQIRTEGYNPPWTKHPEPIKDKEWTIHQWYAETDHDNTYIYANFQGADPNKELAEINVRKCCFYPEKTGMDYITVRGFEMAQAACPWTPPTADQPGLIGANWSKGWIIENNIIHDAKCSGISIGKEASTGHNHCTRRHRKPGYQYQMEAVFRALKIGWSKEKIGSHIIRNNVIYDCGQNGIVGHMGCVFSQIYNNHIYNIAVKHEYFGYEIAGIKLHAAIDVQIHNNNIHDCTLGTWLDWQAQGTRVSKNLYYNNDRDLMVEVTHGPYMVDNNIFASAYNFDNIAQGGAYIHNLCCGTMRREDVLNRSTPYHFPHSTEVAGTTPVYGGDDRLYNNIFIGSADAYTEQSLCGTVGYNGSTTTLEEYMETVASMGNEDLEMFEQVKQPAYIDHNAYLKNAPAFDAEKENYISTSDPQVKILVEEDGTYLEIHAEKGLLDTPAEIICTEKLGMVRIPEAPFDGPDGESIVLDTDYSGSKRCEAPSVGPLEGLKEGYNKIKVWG

[3] = biological target: T3, Bp-XylX-1 (Blautia producta, UniProt A0ABX6JHR7); experiment: inhibition of pNP-Xyl hydrolysis, absorbance […] nm; type: biochemical; settings: 2 mM pNP-Xyl, 50 mM sodium phosphate pH 5.7, 45 °C, 5 min; 200 mM xylose
T3 construct: gene GXM18_27615; recombinant E. coli Rosetta (DE3), pET28a, His-tag, any signal peptide excluded; ~75 kDa; catalytic Asp371 and Glu408; strain proteome UP000464715
T3 sequence (A0ABX6JHR7 entry or part of it): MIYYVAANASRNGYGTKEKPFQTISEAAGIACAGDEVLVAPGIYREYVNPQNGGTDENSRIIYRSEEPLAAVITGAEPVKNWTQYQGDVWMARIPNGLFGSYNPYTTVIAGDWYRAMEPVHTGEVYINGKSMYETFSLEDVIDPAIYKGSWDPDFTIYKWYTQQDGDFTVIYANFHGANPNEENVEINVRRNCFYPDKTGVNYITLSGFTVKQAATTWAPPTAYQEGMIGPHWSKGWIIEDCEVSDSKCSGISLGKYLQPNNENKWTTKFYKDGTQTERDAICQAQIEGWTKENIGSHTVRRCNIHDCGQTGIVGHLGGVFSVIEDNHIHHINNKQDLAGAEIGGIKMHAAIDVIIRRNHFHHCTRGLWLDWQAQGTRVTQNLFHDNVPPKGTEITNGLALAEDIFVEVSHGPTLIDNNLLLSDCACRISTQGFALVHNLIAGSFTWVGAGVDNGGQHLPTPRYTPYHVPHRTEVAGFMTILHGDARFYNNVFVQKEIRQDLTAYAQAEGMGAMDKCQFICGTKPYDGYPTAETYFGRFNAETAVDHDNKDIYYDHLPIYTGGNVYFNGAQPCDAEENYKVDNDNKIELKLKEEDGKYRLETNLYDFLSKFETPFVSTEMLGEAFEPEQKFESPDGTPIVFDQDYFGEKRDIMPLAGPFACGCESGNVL

[4] = substrate: O=[N+]([O-])c1ccc(O[C@@H]2OC[C@@H](O)[C@H](O)[C@H]2O)cc1; experiment: purified protein; type: biochemical, Limosilactobacillus reuteri; settings: sodium phosphate pH 5.7 (50 mM in Table 1, 10 mM in methods), 45 °C, 10 min, 1.3 µM enzyme

Molecule: OC1OC[C@@H](O)[C@H](O)[C@H]1O (stereo partly drawn) [xylose]
- % reduction in activity at 200 mM [1]: ~ 12%
- % reduction in activity at 200 mM [2]: ~ 26%
- % reduction in activity at 200 mM [3]: ~ 42%

B1: Lr-XylC (Limosilactobacillus reuteri subsp. suis) (protein)
chain: MNIYVDKNVPIDGNGQKTHPFKTIQAAANIAQPGDTVLVAPGIYRENVNPKNSGTSSKRITYKSSENLGAVITGAERVTSWEKIDDNVWKVNIPNGVFADYNPYITKVYGDWFDARIIAHTGEVYLNDKALYEVNSLDEVKKPVRNEKSWYPNDTLYTWFTEQDDRNNETIIYANFQGNNPNKENVEINVRENCFYPQAEGIGYITLSGFGVTKAATRWAPPTAYQEGMIGPHWSKGWIIEKCDISHSKCSGISLGKYLQPNNDNKWSKWKYKDGTQTERDAICQASYEGWDKEHVGSHIVRQNHIHDCGQTGIVGHLGGVFSLIEDNDIHDINVRQNLAGAEIGGIKMHAAIDVTYRHNHIHHCTRGLWLDWQAQGTRVTQNVFDHNSLPNDFKVTKDNLDDVLSGLGEDMWIEVSHGPTLIDNNLLLSDRSVRLAAQGVAFVHNLIAGSFTATGRGTDNNSVNLPSNRFTPYHEIHGTKVMGFMTIQHGDNKFYNNIFVQQKLRPEMQKLANMKKDEPDDWDDYNFKVGTKPFDNYPTFEEWKKQFDGYCGIYAPNSDHYYNHLPIWSAGNIYFNGAEPCNMEKDAIISDKKIQLKLEQRDEGLFLKTNLFNAVPAKTDGVISTDTIMMAFEPEEKYENPDGTPIIFNTDFFGTHREGIKVTAGPFAKGNEASSRLF
notes: recombinant E. coli Rosetta (DE3), pET28a, His-tag, any signal peptide excluded; ~75 kDa; catalytic Asp382 and Glu415
- Km [4]: 230 ± 20 µM
- kcat [4]: 11.4 ± 0.2 s⁻¹
- kcat/Km [4]: 49000 M⁻¹ s⁻¹

From paper PMC8954004, “Biochemical Basis of Xylooligosaccharide Utilisation by Gut Bacteria” (International Journal of Molecular Sciences, 2022)
